30 compounds from patent US20230382924A1, “MODULATORS OF CYSTIC FIBROSIS TRANSMEMBRANE CONDUCTANCE REGULATOR” (VERTEX PHARMACEUTICALS INCORPORATED, priority 2020, published 2023) can be followed below.

Like-named read-outs stand apart in the source and are kept apart here. Where only a bound is given, the exact number is not on record here.

The test concerns the target CFTR (Homo sapiens, UniProt P13569). Nature of the test: Membrane Potential Dye, Enteroid Assay A. The note with it: for EC50: read-out: Ent. A EC50. Type of test: cell-based. How it is done: Base medium (ADF+++) consisted of Advanced DMEM/Ham's F12, 2 mM Glutamax, 10 mM HEPES, […] penicillin/streptomycin.
Bath 1 Buffer consisted of 1 mM MgCl2, 160 mM NaCl, 4.5 mM KCl, 10 mM HEPES, 10 mM Glucose, 2 mM CaCl2).
Chloride Free Buffer consisted of 1 mM Magnesium Gluconate, 2 mM Calcium Gluconate, 4.5 mM Potassium Gluconate, 160 mM Sodium Gluconate, 10 mM HEPES, 10 mM Glucose.
Bath 1 Dye Solution consisted of Bath 1 Buffer, 0.04% Pluronic F127, 20 μM Methyl Oxonol, 30 μM CaCCinh-A01, 30 μM Chicago Sky Blue.
Chloride Free Dye Solution consisted of Chloride Free Buffer, 0.04% Pluronic F127, 20 μM Methyl Oxonol, 30 μM CaCCinh-A01, 30 μM Chicago Sky Blue.
3. Enteroid Cell Harvesting and Seeding
Cells were recovered in cell recovery solution, collected by centrifugation at 650 rpm for 5 min at 4° C., resuspended in TryPLE and incubated for 5 min at 37° C. Cells were then collected by centrifugation at 650 rpm for 5 min at 4° C. and resuspended in IEMM containing 10 μM ROCK inhibitor (RI).
4. Membrane Potential Dye, Enteroid Assay A
Briefly, cells were washed 5 times in Bath 1 Buffer. Bath 1 Dye Solution was added, and the cells were incubated for 25 min at room temperature. Following dye incubation, cells were washed 3 times in Chloride Free Dye Solution. Chloride transport was initiated by addition of Chloride Free Dye Stimulation Solution and the fluorescence signal was read for 15 min. […] Chloride transport was then expressed as a percentage of the chloride transport following treatment with 3 μM N-[(6-amino-2-pyridyl)sulfonyl]-6-(3-fluoro-5-isobutoxy-phenyl)-2-[(4S)-2,2,4-trimethylpyrrolidin-1-yl]pyridine-3-carboxamide, 3 μM (R)-1-(2,2-difluorobenzo[d][1,3]dioxol-5-yl)-N-(1-(2,3-dihydroxypropyl)-6-fluoro-2-(1-hydroxy-2-methylpropan-2-yl)-1H-indol-5-yl)cyclopropanecarboxamide and 300 nM acute N-[2,4-bis(1,1-dimethylethyl)-5-hydroxyphenyl]-1,4-dihydro-4-oxoquinoline-3-carboxamide triple combination control (% Activity).

Chain of CFTR (P13569 with tags, fused parts or gaps DEL508-508): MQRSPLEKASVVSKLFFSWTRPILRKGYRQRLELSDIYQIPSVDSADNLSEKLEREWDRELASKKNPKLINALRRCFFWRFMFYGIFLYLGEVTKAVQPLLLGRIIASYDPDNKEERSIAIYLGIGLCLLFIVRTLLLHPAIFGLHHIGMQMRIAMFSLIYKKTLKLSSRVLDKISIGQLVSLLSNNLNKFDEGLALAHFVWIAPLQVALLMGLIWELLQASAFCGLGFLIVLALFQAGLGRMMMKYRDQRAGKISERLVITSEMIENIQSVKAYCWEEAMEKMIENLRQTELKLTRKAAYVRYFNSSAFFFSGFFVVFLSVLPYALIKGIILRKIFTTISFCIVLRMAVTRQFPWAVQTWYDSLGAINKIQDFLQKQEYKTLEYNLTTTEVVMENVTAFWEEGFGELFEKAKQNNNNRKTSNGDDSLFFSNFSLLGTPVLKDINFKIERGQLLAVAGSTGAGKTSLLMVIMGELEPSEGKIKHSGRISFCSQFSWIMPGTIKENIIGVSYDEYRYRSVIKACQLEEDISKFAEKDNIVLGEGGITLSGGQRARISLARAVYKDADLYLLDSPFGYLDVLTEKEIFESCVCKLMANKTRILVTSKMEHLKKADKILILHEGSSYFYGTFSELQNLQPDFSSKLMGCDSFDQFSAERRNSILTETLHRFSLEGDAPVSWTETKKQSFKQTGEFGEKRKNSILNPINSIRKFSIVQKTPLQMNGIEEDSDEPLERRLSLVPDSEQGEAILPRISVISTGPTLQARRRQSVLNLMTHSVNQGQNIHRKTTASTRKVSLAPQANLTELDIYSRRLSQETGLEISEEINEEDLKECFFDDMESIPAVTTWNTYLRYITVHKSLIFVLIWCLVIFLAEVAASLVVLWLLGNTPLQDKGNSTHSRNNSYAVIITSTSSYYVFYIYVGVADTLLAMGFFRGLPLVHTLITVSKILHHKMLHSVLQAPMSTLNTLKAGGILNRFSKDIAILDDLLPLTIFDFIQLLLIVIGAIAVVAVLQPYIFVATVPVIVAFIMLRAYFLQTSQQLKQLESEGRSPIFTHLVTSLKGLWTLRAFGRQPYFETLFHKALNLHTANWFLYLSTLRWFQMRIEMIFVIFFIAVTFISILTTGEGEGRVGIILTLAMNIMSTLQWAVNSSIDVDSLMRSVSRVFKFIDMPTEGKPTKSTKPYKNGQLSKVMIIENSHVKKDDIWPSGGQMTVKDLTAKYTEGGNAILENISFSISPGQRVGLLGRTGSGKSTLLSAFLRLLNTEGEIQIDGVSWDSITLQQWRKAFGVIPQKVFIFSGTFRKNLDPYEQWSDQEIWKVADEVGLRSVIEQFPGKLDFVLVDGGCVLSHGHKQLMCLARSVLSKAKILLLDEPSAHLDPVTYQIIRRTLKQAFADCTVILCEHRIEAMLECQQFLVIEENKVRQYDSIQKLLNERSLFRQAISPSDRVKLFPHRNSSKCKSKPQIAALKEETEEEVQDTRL

One may read the EC50 as the concentration needed to bring the measured effect to its halfway point. Regarding `Cc1cccc(C)c1-c1cc2nc(n1)NS(=O)(=O)c1cccc(c1)C(=O)NC1CC(CN(CCC(C)(C)C)C1)O2` (single isomer, unassigned) [Compound 80, 5-(3,3-Dimethylbutyl)-19-(2,6-dimethylphenyl)-2-oxa-15λ^6-thia-5,8,16,18,21-pentaazatetracyclo[15.3.1.13,7.110,14]tricosa-1(20),10,12,14(22),17(21),18-hexaene-9,15,15-trione], for the setting “Enteroid Assay A”, the “Ent. A Max Activity” value is “++ (++ is 30-60%)” and the EC50 lay in the range of 1 to 3 µM.
Take `CCC1CCC(c2cc3nc(n2)NS(=O)(=O)c2cccc(c2)C(=O)N[C@H](CC(C)C)CO3)CC1` (stereo partly drawn) [Compound 310]: the EC50 (Table 8) was below 1 µM.
For the compound `Cc1cccc(C)c1-c1cc2nc(n1)NS(=O)(=O)c1cccc(c1)C(=O)NCC1(CCN(C(=O)C3CCCCN3Cc3ccc(F)cc3)CC1)CO2` (stereo not drawn) [Compound 456], for the setting “Enteroid Assay A”, the “Ent. A Max Activity” value was “++ (++ is 30-60%)” and the half-maximal effective concentration (EC50) lay within 3 to 30 µM.
Regarding `Cc1cccc(C)c1-c1cc2nc(n1)NS(=O)(=O)c1cc(cc(C3=CCCCC3)c1)C(=O)N[C@H](CC(C)C)CO2` [Compound 139], the “Ent. A Max Activity” value (Table 8) is recorded as “+ (+ is <30%)”.
With `Cc1cccc(C)c1-c1cc2nc(n1)NS(=O)(=O)c1cccc(c1)C(=O)NCC(c1ccc(CC3(C(F)(F)F)CC3)cc1)O2` (stereo not drawn) [Compound 147], where the note is “Table 9”, the “Ent. A Max Activity” value is given as “+++ (+++ is >60%)” and the EC50 is below 1 µM.
As for `Cc1cccc(C)c1-c1cc2nc(n1)NS(=O)(=O)c1cccc(c1)C(=O)N[C@H](C(C)C)CO2` [Compound 112, (11R)-6-(2,6-Dimethylphenyl)-11-(propan-2-yl)-9-oxa-2λ^6-thia-3,5,12,19-tetraazatricyclo[12.3.1.14,8]nonadeca-1(17),4,6,8(19),14(18),15-hexaene-2,2,13-trione], for the setting “Enteroid Assay A”, the “Ent. A Max Activity” value is “+++ (+++ is >600%)” and the EC50 was below 1 µM.
`Cc1cccc(C)c1-c1cc2nc(n1)NS(=O)(=O)c1cccc(c1)C(=O)NC[C@@H](c1ccc(C3CC3)cc1)O2` [Compound 261]: under “Table 9”, the “Ent. A Max Activity” value is “++ (++ is 30-60%)” and the EC50 was in the range of 1 to 3 µM.
For the compound `Cc1cccc(C)c1-c1cc2nc(n1)NS(=O)(=O)[C@H]1CCCN(C1)C(=O)N[C@H](CC1CCCCC1)CO2` (stereo in doubt) [Compound 159], the “Ent. A Max Activity” value (Table 8) is “+ (+ is <30%)”.
Regarding `Cc1cccc(C)c1-c1cc2nc(n1)NS(=O)(=O)c1cccc(c1)C(=O)NCC(c1ccc(Br)cc1)O2` (racemic) [Compound 18, 10-(4-Bromophenyl)-6-(2,6-dimethylphenyl)-2,2-dioxo-9-oxa-2λ^6-thia-3,5,12,19-tetrazatricyclo[12.3.1.14,8]nonadeca-1(18),4(19),5,7,14,16-hexaen-13-one], under “Table 8”, the “Ent. A Max Activity” value is “+++ (+++ is >60%)” and the half-maximal effective concentration (EC50) is below 1 µM.
With `CC(C)C[C@@H]1COc2cc(-c3ccccc3Oc3ccccc3)nc(n2)NS(=O)(=O)c2cccc(c2)C(=O)N1` [Compound 392], under “Table 9”, the “Ent. A Max Activity” value is “++ (++ is 30-60%)” and the EC50 was below 1 µM.
Take `Cc1cccc(C)c1-c1cc2nc(n1)NS(=O)(=O)c1cccc(c1)CNC1C[C@@H](CN(C(=O)OCc3ccccc3)C1)O2` (stereo in doubt) [Compound 193]: for the setting “Enteroid Assay A”, the “Ent. A Max Activity” value is listed as “++ (++ is 30-60%)” and the EC50 fell in the range of 1 to 3 µM.
With `CCC(C)(C)C(=O)N1CC[C@H]2NC(=O)c3cccc(c3)S(=O)(=O)Nc3nc(cc(-c4c(C)cccc4C)n3)OC2C1` (stereo in doubt) [Compound 371], under “Table 9”, the “Ent. A Max Activity” value is “++ (++ is 30-60%)” and the EC50 lay in the range of 3 to 30 µM.
In the case of `Cc1cccc(C)c1-c1cc2nc(n1)NS(=O)(=O)c1cc(ccn1)C(=O)N[C@H](CC1CCCCC1)CO2` [Compound 69, (11R)-11-(Cyclohexylmethyl)-6-(2,6-dimethylphenyl)-2,2-dioxo-9-oxa-2λ^6-thia-3,5,12,17,19-pentazatricyclo[12.3.1.14,8]nonadeca-1(17),4(19),5,7,14(18),15-hexaen-13-one], under “Table 8”, the “Ent. A Max Activity” value was “+++ (+++ is >60%)” and the EC50 was below 1 µM.
Take `Cc1cccc(C)c1-c1cc2nc(n1)NS(=O)(=O)c1cccc(c1)C(=O)NC(CCC1CCOCC1)CO2` (stereo not drawn) [Compound 186]: under “Table 8”, the “Ent. A Max Activity” value was “+++ (+++ is >60%)” and the EC50 is 3 to 30 µM.
For `Cc1cccc(C)c1-c1cc2nc(n1)NS(=O)(=O)c1cccc(c1)C(=O)NC[C@@H](c1ccc(C(C)(C)C(F)(F)F)cc1)O2` [Compound 262], where the note is “Table 9”, the “Ent. A Max Activity” value was “+++ (+++ is >60%)” and the half-maximal effective concentration (EC50) was below 1 µM.
For `Cc1cccc(C)c1-c1cc2nc(n1)NS(=O)(=O)c1cccc(c1)C(=O)N[C@@H]1CCCC[C@@H]1O2` [Compound 363], for the setting “Enteroid Assay A”, the “Ent. A Max Activity” value is on record as “++ (++ is 30-60%)” and the EC50 was 1 to 3 µM.
Regarding `Cc1cccc(C)c1-c1cc2nc(n1)NS(=O)(=O)c1cccc(c1)C(=O)NCC(c1ccc3ccccc3c1)O2` (stereo not drawn) [Compound 253], where the note is “Table 8”, the “Ent. A Max Activity” value is reported as “+++ (+++ is >60%)” and the half-maximal effective concentration (EC50) is below 1 µM.
In the same order, the values of `Cc1cccc(C)c1-c1cc2nc(n1)NS(=O)(=O)c1cccc(c1)C(=O)N[C@H](CC1CCC(F)(F)CC1)CO2` [Compound 187] are “+++ (+++ is >60%)” and below 1 µM.
Take `Cc1cccc(C)c1-c1cc2nc(n1)NS(=O)(=O)c1cccc(c1)C(=O)NCC1(CCN(CCOCc3ccccc3)CC1)CO2` [Compound 445]: for the setting “Enteroid Assay A”, the “Ent. A Max Activity” value is reported as “++ (++ is 30-60%)” and the EC50 fell in the range of 3 to 30 µM.
`CC(C)C[C@@H]1COc2cc(C3CCOCC3)nc(n2)NS(=O)(=O)c2cccc(c2)C(=O)N1` [Compound 314]: for the setting “Table 8”, the “Ent. A Max Activity” value is recorded as “+ (+ is <30%)” and the EC50 was 3 to 30 µM.
The like results for `Cc1ccc(C2CNC(=O)c3cccc(c3)S(=O)(=O)Nc3nc(cc(-c4c(C)cccc4C)n3)O2)cc1` (stereo not drawn) [Compound 407] were, in that order, “+++ (+++ is >60%)” and below 1 µM.
Consider `Cc1cccc(C)c1-c1cc2nc(n1)NS(=O)(=O)c1cccc(c1)C(=O)NCCCC(c1ccc(C(C)(C)C)cc1)O2` (stereo not drawn) [Compound 54, 10-(4-tert-butylphenyl)-6-(2,6-dimethylphenyl)-2,2-dioxo-9-oxa-2λ^6-thia-3,5,14,21-tetrazatricyclo[14.3.1.14,8]henicosa-1(20),4(21),5,7,16,18-hexaen-15-one], for which, under “Table 9”, the “Ent. A Max Activity” value is “+++ (+++ is >60%)” and the half-maximal effective concentration (EC50) is below 1 µM.
As for `Cc1cccc(C)c1-c1cc2nc(n1)NS(=O)(=O)c1cccc(c1)C(=O)N[C@H]1CCN(CCC(C)(C)C)C[C@H]1O2` (single isomer, unassigned) [Compound 90, 5-(3,3-dimethylbutyl)-20-(2,6-dimethylphenyl)-2-oxa-16λ^6-thia-5,9,17,19,22-pentaazatetracyclo[16.3.1.111,15.03,8]tricosa-1(21),11(23),12,14,18(22),19-hexaene-10,16,16-trione], for the setting “Table 9”, the “Ent. A Max Activity” value is recorded as “+++ (+++ is >60%)” and the concentration for a half-maximal effect (EC50) was 1 to 3 µM.
Turning to `Cc1cccc(C)c1-c1cc2nc(n1)NS(=O)(=O)c1cccc(c1)C(=O)NCC(Cc1ccc(C(C)(C)C)cc1)O2` (stereo not drawn) [Compound 242], the EC50 (Table 8) was below 1 µM.
Turning to `Cc1cccc(C)c1-c1cc2cc(n1)NS(=O)(=O)c1cccc(c1)C(=O)N[C@H](CC(C)C)CO2` [Compound 296], for the setting “Table 8”, the “Ent. A Max Activity” value is recorded as “+++ (+++ is >60%)” and the EC50 is below 1 µM.
For `Cc1cccc(C)c1-c1cc2nc(n1)NS(=O)(=O)c1cccc(c1)C(=O)N[C@H](c1ccccc1)CO2` [Compound 352], where the note is “Enteroid Assay A”, the “Ent. A Max Activity” value is “+++ (+++ is >600%)” and the EC50 was below 1 µM.
As to `COc1cc(Cc2cccc(C)c2-c2cc3nc(n2)NS(=O)(=O)c2cccc(c2)C(=O)N[C@H](CC(C)C)CO3)cc(OC)c1` [Compound 167], where the note is “Table 9”, the “Ent. A Max Activity” value is given as “+++ (+++ is >60%)” and the concentration for a half-maximal effect (EC50) is below 1 µM.
In the case of `Cc1cccc(C)c1-c1cc2nc(n1)NS(=O)(=O)c1cc(cc(-c3ccc(C(C)(C)C)cc3)c1)C(=O)N[C@H](CC(C)C)CO2` [Compound 135], the “Ent. A Max Activity” value (Table 8) is “+ (+ is <30%)”.
Consider `Cc1cccc(C)c1-c1cc2nc(n1)NS(=O)(=O)c1cccc(c1)C(=O)NC[C@@H](c1ccc(C(C)(F)F)cc1)O2` (stereo in doubt) [Compound 399], for which, where the note is “Table 8”, the “Ent. A Max Activity” value is “+++ (+++ is >60%)” and the concentration giving a half-maximal response (EC50) was below 1 µM.
As for `Cc1cccc(C)c1-c1cc2nc(n1)NS(=O)(=O)c1cccc(c1)C(=O)NCC(c1ccc(C(C)C)cc1)O2` (stereo not drawn) [Compound 275], the EC50 (Table 8) was below 1 µM.
